Six substances from US9474703B2, “Antimicrobial compositions containing cationic active ingredients and quaternary sugar derived surfactants” (Ecolab USA Inc., priority 2010, dated 2016) can be followed below.

For assay [1], the system named is Escherichia coli ATCC 112229. Nature of the assay: Time kill method (ASTM E 2315), E. coli. The settings on record: 0.5% ADBAC Quat. Type of assay: cell-based. The method, then:
(§1) (1) Determination of Time Kill Activity: • (a) The activity of antimicrobial compositions was measured by the time kill method [ASTM E 2315 Standard Guide for Assessment of Antimicrobial Activity Using a Time Kill Procedure], whereby the survival of challenged organisms exposed to an antimicrobial test composition is […] as a function of time. In this test, a diluted aliquot of the composition is brought into contact with a known population of test bacteria for a specified time period at a specified temperature. The test composition is neutralized at the end of the time period, which arrests the antimicrobial activity of the composition. The percent or, alternatively, log reduction from the original bacteria population is calculated. In general, the time kill method is known to those skilled in the art. In addition, comparative data on the foam profile of representative systems is shown. • (b) The composition can be tested at any concentration from 0.01-100%. The choice of which concentration to use is at the discretion of the investigator, and suitable concentrations are readily determined by those skilled in the art. All testing if performed in triplicate, the results are combined, and the average log reduction is reported. • (c) The choice of contact time period also is at the discretion of the investigator. Any contact time period can be chosen. Typical contact times range from 15 second to 5 minutes, with 30 seconds and 1 minute being typical contact times. The contact temperature also can be any temperature, typically room temperature, or about 25 degrees Celsius. • (d) The microbial suspension, or test inoculum, is prepared by growing a microbial culture on any appropriate solid media (e.g., agar). The microbial population then is washed from the agar with sterile physiological saline and the population of the microbial suspension is adjusted to about 10^8 colony forming units per ml (cfu/ml). • (e) The table below lists the test microbial cultures used in the following tests and includes the name of the bacteria, the ATCC (American Type Culture Collection) identification number, and the abbreviation for the name of the organism used hereafter.
(§2) S. aureus is a Gram positive bacteria, whereas, E. coli is a Gram negative bacteria.
(§3) The log reduction is calculated using the formula: Log reduction=log10(numbers control)−log10(test sample survivors).
(§4) The following table correlates percent reduction in microbial population to log reduction: […]

Assay [2] deals with Staphylococcus aureus ATCC 6538. The assay can be described thus: Time kill method (ASTM E 2315), S. aureus. The settings on record: 0.5% ADBAC Quat. Type of assay: cell-based. The method, then: as §1, §2, §3, §4
Where [3] appears, read: Table 10, 1.25% w/w quaternized sugar-derived surfactant, 1.95% Alkyl Dimethyl Amine Oxide.
[4] abbreviates: 30 seconds exposure, 1.95% w/w foam boosting agent (amine oxide), 1.25% Poly Trimoniumhydroxypropyl Cocoglucosides Chloride.
[5] abbreviates: 30 seconds exposure, 3.0% w/w foam boosting agent (amine oxide), 1.25% Poly Trimoniumhydroxypropyl Cocoglucosides Chloride.
The mark [6] stands for this setting: 30 seconds exposure, 4.2% w/w foam boosting agent (amine oxide), 1.25% Poly Trimoniumhydroxypropyl Cocoglucosides Chloride.

Regarding “Lauridimonium-hydroxypropyl Laurylglucosides Chloride [Formula L1210]”, the “E. coli Log Reduction” value in assay [1] (setting [3]) is on record as greater than 5.0. Moreover, the “S. aureus Log Reduction” value in assay [2] (setting [3]) was greater than 5.0.
Take “Laurylglucosides Hydroxypropyl-trimonium Chloride [TM1212]”: the “E. coli Log Reduction” value in assay [1] (setting [3]) was greater than 5.0. Also, the “S. aureus Log Reduction” value in assay [2] (setting [3]) is greater than 5.0.
For “Stearyldimonium-hydroxypropyl Laurylglucosides Chloride [Formula S1218]”, the “E. coli Log Reduction” value in assay [1] (setting [3]) is recorded as greater than 5.0. Also, the “S. aureus Log Reduction” value in assay [2] (setting [3]) is greater than 5.0.
Regarding “Cocoglucosides Hydroxypropyl-trimonium Chloride [TM8610]”, the “E. coli Log Reduction” value in assay [1] (setting [3]) is greater than 5.0. The “S. aureus Log Reduction” value in assay [2] (setting [3]) is greater than 5.0.
Alkyl Dimethyl Amine Oxide: the “E. coli Log Reduction” value in assay [1] (setting [4]), in assay [1] (setting [5]) and in assay [1] (setting [6]) was greater than 5.5 each time. Also, the “S. aureus Log Reduction” value in assay [2] (setting [4]), in assay [2] (setting [5]) and in assay [2] (setting [6]) was greater than 5.5 in each case.
On to “Lauridimonium-hydroxypropyl Cocoglucosides Chloride [Formula L8610]”, for which the “E. coli Log Reduction” value in assay [1] (setting [3]) is greater than 5.0. The “S. aureus Log Reduction” value in assay [2] (setting [3]) was greater than 5.0.
